Laboratory results: the CheMixHub viscosity set
Where “and” joins values, the source holds several entries; their conditions need not be identical. Equal entries are not always repeated. ± gives the uncertainty stated by the source.

Experiment: xn = mol fraction of the nth substance listed

SMILES: CC(C)O + O
- viscosity (293.15 K, 100 kPa, x1 = 0.2): 3.802 ± 0.011 mPa·s and 3.645 ± 0.011 mPa·s
- viscosity (293.15 K, 100 kPa, x1 = 0.3): 3.735 ± 0.011 mPa·s
- viscosity (293.15 K, 101 kPa, x1 = 0.01): 1.17 ± 0.008 mPa·s
- viscosity (293.15 K, 101 kPa, x1 = 0.02): 1.369 ± 0.009 mPa·s
- viscosity (293.15 K, 101 kPa, x1 = 0.032): 1.67 ± 0.052 mPa·s
- viscosity (293.15 K, 101 kPa, x1 = 0.05): 2.062 ± 0.014 mPa·s
- viscosity (293.15 K, 101 kPa, x1 = 0.07069): 2.544 ± 0.017 mPa·s
- viscosity (293.15 K, 101 kPa, x1 = 0.1): 3.054 ± 0.02 mPa·s
- viscosity (293.15 K, 101 kPa, x1 = 0.11): 3.26 ± 0.099 mPa·s
- viscosity (293.15 K, 101 kPa, x1 = 0.2): 3.741 ± 0.024 mPa·s
- viscosity (293.15 K, 101 kPa, x1 = 0.23): 3.875 ± 0.12 mPa·s
- viscosity (293.15 K, 101 kPa, x1 = 0.41): 3.493 ± 0.1 mPa·s
- viscosity (298.15 K, 101 kPa, x1 = 0.01): 1.029 ± 0.007 mPa·s
- viscosity (298.15 K, 101 kPa, x1 = 0.02): 1.188 ± 0.008 mPa·s
- viscosity (298.15 K, 101 kPa, x1 = 0.032): 1.416 ± 0.044 mPa·s
- viscosity (298.15 K, 101 kPa, x1 = 0.07069): 2.089 ± 0.014 mPa·s
- viscosity (298.15 K, 101 kPa, x1 = 0.1): 2.472 ± 0.016 mPa·s
- viscosity (298.15 K, 101 kPa, x1 = 0.11): 2.601 ± 0.079 mPa·s
- viscosity (298.15 K, 101 kPa, x1 = 0.23): 3.141 ± 0.094 mPa·s
- viscosity (298.15 K, 101 kPa, x1 = 0.41): 2.912 ± 0.087 mPa·s
- viscosity (298.15 K, 101 kPa, x2 = 0.26): 2.142 ± 0.024 mPa·s
- viscosity (298.15 K, 101 kPa, x2 = 0.4678): 2.527 ± 0.028 mPa·s
- viscosity (298.15 K, 101 kPa, x2 = 0.6079): 2.87 ± 0.03 mPa·s
- viscosity (298.15 K, 101 kPa, x2 = 0.685): 3.03 ± 0.032 mPa·s
- viscosity (298.15 K, 101 kPa, x2 = 0.7249): 3.054 ± 0.033 mPa·s
- viscosity (298.15 K, 101 kPa, x2 = 0.805): 2.978 ± 0.03 mPa·s
- viscosity (298.15 K, 101 kPa, x2 = 0.89): 2.431 ± 0.024 mPa·s
- viscosity (298.15 K, 101 kPa, x2 = 0.9549): 1.655 ± 0.016 mPa·s
- viscosity (298.15 K, 101.33 kPa, x1 = 0.015): 1.112 ± 0.029 mPa·s
- viscosity (298.15 K, 101.33 kPa, x1 = 0.05): 1.747 ± 0.045 mPa·s
- viscosity (298.15 K, 101.33 kPa, x1 = 0.075): 2.181 ± 0.056 mPa·s
- viscosity (298.15 K, 101.33 kPa, x1 = 0.15): 2.883 ± 0.074 mPa·s
- viscosity (298.15 K, 101.33 kPa, x1 = 0.2): 3.008 ± 0.077 mPa·s
- viscosity (298.15 K, 101.33 kPa, x1 = 0.25): 3.057 ± 0.078 mPa·s
- viscosity (298.15 K, 101.33 kPa, x1 = 0.3): 3.026 ± 0.078 mPa·s
- viscosity (298.15 K, 101.33 kPa, x1 = 0.4): 2.855 ± 0.073 mPa·s
- viscosity (298.15 K, 101.33 kPa, x1 = 0.5): 2.631 ± 0.067 mPa·s
- viscosity (298.15 K, 101.33 kPa, x1 = 0.6): 2.411 ± 0.062 mPa·s
- viscosity (298.15 K, 101.33 kPa, x1 = 0.7): 2.23 ± 0.057 mPa·s
- viscosity (298.15 K, 101.33 kPa, x1 = 0.8): 2.098 ± 0.054 mPa·s
- viscosity (298.15 K, 101.33 kPa, x1 = 0.9): 2.03 ± 0.052 mPa·s
- viscosity (298.15 K, 101.33 kPa, x1 = 0.925): 2.026 ± 0.052 mPa·s
- viscosity (298.15 K, 101.33 kPa, x1 = 0.95): 2.031 ± 0.052 mPa·s
- viscosity (303.15 K, 100 kPa, x2 = 0.1): 1.77 ± 0.042 mPa·s
- viscosity (303.15 K, 100 kPa, x2 = 0.2): 1.83 ± 0.044 mPa·s
- viscosity (303.15 K, 100 kPa, x2 = 0.3): 1.95 ± 0.047 mPa·s
- viscosity (303.15 K, 100 kPa, x2 = 0.4): 2.1 ± 0.05 mPa·s
- viscosity (303.15 K, 100 kPa, x2 = 0.5): 2.25 ± 0.054 mPa·s
- viscosity (303.15 K, 100 kPa, x2 = 0.6): 2.42 ± 0.058 mPa·s
- viscosity (303.15 K, 100 kPa, x2 = 0.7): 2.54 ± 0.061 mPa·s
- viscosity (303.15 K, 100 kPa, x2 = 0.8): 2.47 ± 0.058 mPa·s
- viscosity (303.15 K, 100 kPa, x2 = 0.9): 1.95 ± 0.046 mPa·s
- viscosity (303.15 K, 101 kPa, x1 = 0.01): 0.912 ± 0.006 mPa·s
- viscosity (303.15 K, 101 kPa, x1 = 0.02): 1.04 ± 0.007 mPa·s
- viscosity (303.15 K, 101 kPa, x1 = 0.05): 1.467 ± 0.01 mPa·s
- viscosity (303.15 K, 101 kPa, x1 = 0.07069): 1.735 ± 0.012 mPa·s
- viscosity (303.15 K, 101 kPa, x1 = 0.1): 2.041 ± 0.014 mPa·s
- viscosity (303.15 K, 101 kPa, x1 = 0.2): 2.504 ± 0.017 mPa·s
- viscosity (303.15 K, 101 kPa, x1 = 0.23): 2.573 ± 0.078 mPa·s
- viscosity (303.15 K, 101 kPa, x1 = 0.41): 2.434 ± 0.074 mPa·s
- viscosity (303.15 K, 101 kPa, x2 = 0.1049): 1.789 ± 0.019 mPa·s
- viscosity (303.15 K, 101 kPa, x2 = 0.26): 1.863 ± 0.02 mPa·s
- viscosity (303.15 K, 101 kPa, x2 = 0.4678): 2.158 ± 0.023 mPa·s
- viscosity (303.15 K, 101 kPa, x2 = 0.6079): 2.439 ± 0.027 mPa·s
- viscosity (303.15 K, 101 kPa, x2 = 0.685): 2.55 ± 0.028 mPa·s
- viscosity (303.15 K, 101 kPa, x2 = 0.7249): 2.557 ± 0.029 mPa·s
- viscosity (303.15 K, 101 kPa, x2 = 0.805): 2.451 ± 0.028 mPa·s
- viscosity (303.15 K, 101 kPa, x2 = 0.89): 2.007 ± 0.023 mPa·s
- viscosity (303.15 K, 101 kPa, x2 = 0.9549): 1.419 ± 0.016 mPa·s
- viscosity (308.15 K, 101 kPa, x1 = 0.01): 0.815 ± 0.006 mPa·s
- viscosity (308.15 K, 101 kPa, x1 = 0.02): 0.923 ± 0.006 mPa·s
- viscosity (308.15 K, 101 kPa, x1 = 0.032): 1.056 ± 0.034 mPa·s
- viscosity (308.15 K, 101 kPa, x1 = 0.05): 1.263 ± 0.009 mPa·s
- viscosity (308.15 K, 101 kPa, x1 = 0.07069): 1.48 ± 0.01 mPa·s
- viscosity (308.15 K, 101 kPa, x1 = 0.1): 1.717 ± 0.012 mPa·s
- viscosity (308.15 K, 101 kPa, x1 = 0.11): 1.749 ± 0.054 mPa·s
- viscosity (308.15 K, 101 kPa, x1 = 0.2): 2.109 ± 0.014 mPa·s
- viscosity (308.15 K, 101 kPa, x1 = 0.23): 2.142 ± 0.065 mPa·s
- viscosity (308.15 K, 101 kPa, x1 = 0.41): 2.044 ± 0.063 mPa·s
- viscosity (308.15 K, 101 kPa, x2 = 0.1049): 1.56 ± 0.017 mPa·s
